Results taken from patent US20110245242A1, “Heterocyclically Substituted Anilinopyrimides” (Bayer CropScience AG, priority 2008, published 2011).

What was measured:
[1] = log P by LC-MS, method [b], acid range pH 2.7; format: physicochemical; details: pH 2.7
Procedure: The log P values were measured in accordance with EEC Directive 79/831 Annex V.A8 by HPLC (High Performance Liquid Chromatography) on reversed-phase columns (C 18) using the methods below:
[b] The LC-MS determination in the acid range was carried out at pH 2.7 using the mobile phases 0.1% aqueous formic acid and acetonitrile (contains 0.1% formic acid)
linear gradient from 10% acetonitrile to 95% acetonitrile.

physchem = format: physicochemical; details: pH 7.8
Procedure: The log P values were measured in accordance with EEC Directive 79/831 Annex V.A8 by HPLC (High Performance Liquid Chromatography) on reversed-phase columns (C 18) using the methods below: [c] The LC-MS determination in the neutral range was carried out at pH 7.8 using the mobile phases 0.001 molar aqueous ammonium bicarbonate solution and acetonitrile linear gradient from 10% acetonitrile to 95% acetonitrile.

O=C1CCC(C(F)(F)F)N1c1cccc(Nc2ncc(Cl)c(NC3CC3)n2)c1 (stereo not drawn) [Example 260]
log p [1]: 1.89[b]
log p (physchem): 2.67[c];

O=C1CCCN1c1cccc(Nc2ncc(Cl)c(N3CCSCC3)n2)c1 [Example 228]
log p [1]: 2.63[b]
log p (physchem): 3.01[c];

Cc1cc(Nc2ncc(C(F)(F)F)c(NC3CC3)n2)cc(N2CCCC2=O)c1 [Example 310]
log p [1]: 2.51[b]
log p (physchem): 2.98[c];

CC1(Nc2nc(Nc3cccc(N4CCCC4=O)c3)ncc2C(F)(F)F)CC1 [Example 252]
log p [1]: 2.44[b]
log p (physchem): 2.95[c];

O=C1CCC(C(F)(F)F)N1c1cccc(Nc2ncc(Br)c(NC3CCC3)n2)c1 (stereo not drawn) [Example 258]
log p [1]: 2.3[b]
log p (physchem): 3.24[c];

CCOC(=O)[C@@H]1CCC(=O)N1c1cccc(Nc2ncc(C(F)(F)F)c(NC3CC3)n2)c1 [Example 193]
log p [1]: 2.56[b]
log p (physchem): 2.82[c];

CC1CC1Nc1nc(Nc2cccc(N3CCCC3=O)c2)ncc1Br (stereo not drawn) [Example 229]
log p [1]: 1.84[b]
log p (physchem): 2.82[c];

COC(=O)N(c1cccc(N2CCCC2=O)c1)c1ncc(C(F)(F)F)c(NC2CC2)n1 [Example 309]
log p [1]: 2.25[b]
log p (physchem): 2.37[c];

CC(C)C1COC(=O)N1c1cccc(Nc2ncc(C(F)(F)F)c(NC3CCC3)n2)c1 (stereo not drawn) [Example 263]
log p [1]: 3.47[b]
log p (physchem): 3.85[c];

CNc1nc(Nc2ccc(F)c(N3CCCC3=O)c2)ncc1Cl [Example 199]
log p [1]: 1.28[b]
log p (physchem): 1.91[c];

O=C1CCCN1c1cccc(Nc2ncc(C(F)(F)F)c(NCC(F)F)n2)c1 [Example 311]
log p [1]: 2.38[b]
log p (physchem): 2.52[c];

CC(C)C1COC(=O)N1c1cccc(Nc2ncc(Br)c(NC3CC3)n2)c1 (stereo not drawn) [Example 250]
log p [1]: 2.22[b]
log p (physchem): 3.18[c];

CC1CC1Nc1nc(Nc2cccc(N3C(=O)OCC3C)c2)ncc1Br (stereo not drawn) [Example 239]
log p [1]: 1.83[b]
log p (physchem): 2.9[c];

O=C1CCCN1c1cccc(Nc2ncc(C(F)(F)F)c(NCC(F)(F)F)n2)c1 [Example 306]
log p [1]: 2.6[b]
log p (physchem): 2.66[c];

CC1CC(Nc2nc(Nc3cccc(N4CCCC4=O)c3)ncc2Cl)C1 (stereo not drawn) [Example 299]
log p [1]: 3.25[b]
log p (physchem): 3.26[c];

CC1CC(Nc2nc(Nc3cccc(N4C(=O)CC(C)C4=O)c3)ncc2Br)C1 (stereo not drawn) [Example 281]
log p [1]: 2.23[b]
log p (physchem): 2.98[c];

CC1CCN(c2cccc(Nc3ncc(Cl)c(NC4CC4C)n3)c2)C1=O (stereo not drawn) [Example 241]
log p [1]: 2.06[b]
log p (physchem): 3.17[c];

CC1CC1Nc1nc(Nc2cccc(N3CCCCC3=O)c2)ncc1Cl (stereo not drawn) [Example 213]
log p [1]: 1.7[b]
log p (physchem): 2.48[c];

CCN(C)c1nc(Nc2cccc(N3CCCC3=O)c2)ncc1Cl [Example 207]
log p [1]: 1.79[b]
log p (physchem): 2.91[c];

CC1CCN(c2cccc(Nc3ncc(C(F)(F)F)c(NC4CC4)n3)c2)C1=O (stereo not drawn) [Example 292]
log p [1]: 2.65[b]
log p (physchem): 3.05[c];

COc1cc(Nc2ncc(Cl)c(NC3CC3)n2)cc(N2CCCC2=O)c1 [Example 318]
log p [1]: 1.64[b]
log p (physchem): 2.46[c];

CC1CC(=O)N(c2cccc(Nc3ncc(C(F)(F)F)c(NC4CC4)n3)c2)C1=O (stereo not drawn) [Example 244]
log p [1]: 2.29[b]
log p (physchem): 2.53[c];

CC1CC1Nc1nc(Nc2cccc(N3CCOC3=O)c2)ncc1Br (stereo not drawn) [Example 227]
log p [1]: 1.77[b]
log p (physchem): 2.79[c];

CC1CN(c2cccc(Nc3ncc(Cl)c(NC4CC4)n3)c2)C(=O)O1 (stereo not drawn) [Example 264]
log p [1]: 1.65[b]
log p (physchem): 2.56[c];

CC1CN(c2cccc(Nc3ncc(Cl)c(NC4CCC4)n3)c2)C(=O)O1 (stereo not drawn) [Example 312]
log p [1]: 1.91[b]
log p (physchem): 3.02[c];

COC(=O)N(c1cccc(N2CCCC2=O)c1)c1ncc(Cl)c(NC2CC2)n1 [Example 327]
log p [1]: 1.77[b]
log p (physchem): 1.99[c];

CC1CC(=O)N(c2cccc(Nc3ncc(C(F)(F)F)c(NC4CC4)n3)c2)C1 (stereo not drawn) [Example 240]
log p [1]: 2.65[b]
log p (physchem): 3.06[c];

O=C1CCCN1c1cccc(Nc2ncc(Cl)c(N3CCCCC3)n2)c1 [Example 225]
log p [1]: 2.57[b]
log p (physchem): 3.53[c];

CC1CC(Nc2nc(Nc3cccc(N4C(=O)CC(C)(C)C4=O)c3)ncc2Cl)C1 (stereo not drawn) [Example 259]
log p [1]: 2.43[b]
log p (physchem): 3.22[c];

COc1cc(Nc2ncc(C(F)(F)F)c(NC3CC3)n2)cc(N2CCCC2=O)c1 [Example 326]
log p [1]: 2.47[b]
log p (physchem): 2.8[c];

CC1CCC(=O)N1c1cccc(Nc2ncc(C(F)(F)F)c(NC3CC3)n2)c1 (stereo not drawn) [Example 243]
log p [1]: 2.41[b]
log p (physchem): 2.73[c];

CCC1CC(C)C(=O)N1c1cccc(Nc2ncc(Br)c(NC(C)C)n2)c1 (stereo not drawn) [Example 210]
log p [1]: 2.36[b]
log p (physchem): 3.7[c];

CC1CC1Nc1nc(Nc2cccc(N3C(=O)OCC3C)c2)ncc1Cl (stereo not drawn) [Example 215]
log p [1]: 1.84[b]
log p (physchem): 2.79[c];

Cc1ccc(Nc2ncc(C(F)(F)F)c(NC3CC3)n2)cc1N1CCCC1=O [Example 316]
log p [1]: 2.16[b]
log p (physchem): 2.62[c];

CC1CC1Nc1nc(Nc2cccc(N3C(=O)CC(C)(C)C3=O)c2)ncc1Br (stereo not drawn) [Example 295]
log p [1]: 2.2[b]
log p (physchem): 3.11[c];

CC1CC(=O)N(c2cccc(Nc3ncc(Br)c(NC4CC4)n3)c2)C1 (stereo not drawn) [Example 99]
log p [1]: 1.85[b]
log p (physchem): 2.79[c];

CC1CC1Nc1nc(Nc2ccc(N3CCOC3=O)cc2)ncc1Br (stereo not drawn) [Example 308]
log p [1]: 1.97[b]
log p (physchem): 2.91[c];

C[C@H]1COC(=O)N1c1cccc(Nc2ncc(Cl)c(N3CCC3)n2)c1 [Example 230]
log p [1]: 1.58[b]
log p (physchem): 2.75[c];

CC1CCN(c2cccc(Nc3ncc(C(F)(F)F)c(NC4CCC4)n3)c2)C1=O (stereo not drawn) [Example 251]
log p [1]: 3.16[b]
log p (physchem): 3.67[c];

CC1CC1Nc1nc(Nc2cccc(N3CCCCC3=O)c2)ncc1Br (stereo not drawn) [Example 223]
log p [1]: 1.81[b]
log p (physchem): 2.67[c];

CC1CC(=O)N(c2cccc(Nc3ncc(Cl)c(NC4CCC4)n3)c2)C1=O (stereo not drawn) [Example 188]
log p [1]: 1.76[b]
log p (physchem): 2.67[c];

CC1CC(=O)N(c2cccc(Nc3ncc(C(F)(F)F)c(NC4CCC4)n3)c2)C1=O (stereo not drawn) [Example 247]
log p [1]: 2.67[b]
log p (physchem): 3.04[c];

O=C1CCCN1c1cccc(Nc2ncc(C(F)(F)F)c(NCC(F)(F)C(F)(F)F)n2)c1 [Example 218]
log p [1]: 3.1[b]
log p (physchem): 3.07[c];

CC1CC1Nc1nc(Nc2cccc(N3C(=O)OC[C@H]3C(C)C)c2)ncc1Cl (stereo partly drawn) [Example 216]
log p [1]: 2.43[b]
log p (physchem): 3.46[c];

CC1CC(C)N(c2cccc(Nc3ncc(C(F)(F)F)c(NC4CCC4)n3)c2)C1=O (stereo not drawn) [Example 289]
log p [1]: 3.27[b]
log p (physchem): 3.74[c];

CC1CC1N(C)c1nc(Nc2cccc(N3CCCC3=O)c2)ncc1Cl (stereo not drawn) [Example 304]
log p [1]: 2.66[b]
log p (physchem): 3.53[c];

CC1CC(Nc2nc(Nc3cccc(N4C(=O)CCC4C)c3)ncc2Cl)C1 (stereo not drawn) [Example 253]
log p [1]: 2.15[b]
log p (physchem): 3.16[c];

CCC1CC(C)C(=O)N1c1cccc(Nc2ncc(Br)c(NCC3CC3)n2)c1 (stereo not drawn) [Example 209]
log p [1]: 2.41[b]
log p (physchem): 3.69[c];

O=C1CCCN1c1cccc(Nc2ncc(C(F)(F)F)c(N3CCCC3)n2)c1 [Example 301]
log p [1]: 2.45[b]
log p (physchem): 3.24[c];

O=C1CCCN1c1cccc(Nc2ncc(C(F)(F)F)c(NCCF)n2)c1 [Example 302]
log p [1]: 2.05[b]
log p (physchem): 2.67[c];

CN(c1cccc(N2CCCC2=O)c1)c1ncc(Cl)c(N(C)C2CC2)n1 [Example 325]
log p [1]: 1.98[b]
log p (physchem): 3.66[c];

CC1CC1Nc1nc(Nc2cccc(N3C(=O)CC(C)(C)C3=O)c2)ncc1Cl (stereo not drawn) [Example 246]
log p [1]: 2.09[b]
log p (physchem): 2.92[c];

CC1CN(c2cccc(Nc3ncc(Br)c(NC4CCC4)n3)c2)C(=O)O1 (stereo not drawn) [Example 287]
log p [1]: 2.04[b]
log p (physchem): 3.17[c];

CC1CC(Nc2nc(Nc3cccc(N4C(=O)CC(C)C4=O)c3)ncc2Cl)C1 (stereo not drawn) [Example 333]
log p [1]: 2.09[b]
log p (physchem): 3.09[c];

CCC1CC(C)C(=O)N1c1cccc(Nc2ncc(Cl)c(NCC3CC3)n2)c1 (stereo not drawn) [Example 212]
log p [1]: 2.33[b]
log p (physchem): 3.54[c];

CC(C)Nc1nc(Nc2ccc(F)c(N3CCCC3=O)c2)ncc1Cl [Example 197]
log p [1]: 1.55[b]
log p (physchem): 2.55[c];

CCC1CC(C)C(=O)N1c1cccc(Nc2ncc(Br)c(NC3CC3)n2)c1 (stereo not drawn) [Example 208]
log p [1]: 2.32[b]
log p (physchem): 3.31[c];

CC(C)Nc1nc(Nc2cccc(N3CCCC3=O)c2)ncc1C(F)(F)F [Example 297]
log p [1]: 2.35[b]
log p (physchem): 3[c];

CC1CC(Nc2nc(Nc3cccc(N4C(=O)CC(C)(C)C4=O)c3)ncc2Br)C1 (stereo not drawn) [Example 257]
log p [1]: 2.58[b]
log p (physchem): 3.66[c];

CC(C)C1COC(=O)N1c1cccc(Nc2ncc(Br)c(NC3CCC3)n2)c1 (stereo not drawn) [Example 248]
log p [1]: 2.54[b]
log p (physchem): 3.71[c];

O=C1CCCN1c1cccc(Nc2ncc(Cl)c(N3CCOCC3)n2)c1 [Example 226]
log p [1]: 1.98[b]
log p (physchem): 2.29[c];

CC(C)Nc1nc(Nc2cccc(N3CCC(C)C3=O)c2)ncc1Cl (stereo not drawn) [Example 185]
log p [1]: 1.82[b]
log p (physchem): 3.07[c];

O=C1CCC(C(F)(F)F)N1c1cccc(Nc2ncc(C(F)(F)F)c(NC3CC3)n2)c1 (stereo not drawn) [Example 314]
log p [1]: 2.74[b]
log p (physchem): 2.98[c];
